Each molecule was assayed on HIV-1 (assay: Luciferase Replication assay). Details: Human immunodeficiency virus 1, U87/CD4/CCR5, 72 h.
Assay type: cell-based
Procedure: Luciferase Replication Assay:
Plasmids encoding the full length genome of HIV-1 pNL-4-Luc with the gp 120 V-3 loop replaced by the Bgl II fragment of HIV-1 ADA, YU-2 or HxB (ADA-Luc-FL, YU-2-Luc-FL and HxB-Luc-FL) were obtained from Dr. Susan Pontow (Washington University, St. Louis Mo.). Replication-competent luciferase reporter virus stocks were generated by transfection of plasmids into 293T cells using Superfect (Qiagen) or Mirus transfection reagents. Viral stocks were collected 48 hours following transfection and titered for luciferase production on U-87-CCR5 or CXCR4 cells. U87-CD4-CCR5 cells ([…]) were plated in 96-well cell culture plates and incubated overnight. Media was removed and replaced with 50 μl of fresh culture media (DMEM, 10% FCS) and 50 μl of compound diluted in culture medium. Cells were incubated with compound at 37° C. for 1 hour. The resultant supernatant was removed and replaced with 20 μl of media containing compound and infected with an equal volume of diluted or undiluted virus stock at 37° C. for 3-4 hours. The cells were washed once with DMEM, and 200 μl of media containing compound was added. The cultures were incubated for 3 days, the cells lysed in luciferase lysis buffer (Promega, Madison, Wis.) and transferred to Immulon plates (Dynex Technologies, Chantilly Va.). An equal volume of luciferase substrate (Promega, Madison Wis.) was added to lysates and the plates read immediately in a Wallac Luminometer. Fifty and ninety percent inhibitory concentrations were determined using GraphPad PRISM software.

**Q.** Which IC50 does the source give for `Cc1ncnc(C)c1C(=O)N1CCC(C)(N2CCC(N(Cc3ccccc3)c3ccc(CN4CC[C@H](NS(=O)(=O)C5CC5)C4=O)cc3)CC2)CC1` here?
**A.** Its IC50 is 140 pM.

**Q.** `Cc1ncnc(C)c1C(=O)N1CCC(C)(N2CCC(N(Cc3ccccc3)c3ccc(CC(=O)N4CCCC4)cc3)CC2)CC1` was tested. Which IC50 did it give?
**A.** The IC50 was 130 pM.

**Q.** `Cc1ncnc(C)c1C(=O)N1CCC(C)(N2CCC(N(Cc3ccccc3)c3ccc(C(C)(C)C(=O)N4CCOCC4)cc3)CC2)CC1` was tested. Which IC50 did it give?
**A.** Its IC50 is 140 pM.

**Q.** With `Cc1ncnc(C)c1C(=O)N1CCC(C)(N2CCC(N(Cc3ccccc3)c3ccc(C(C)(C)C(=O)N4CCCCC4)cc3)CC2)CC1` as the molecule, how does the IC50 read?
**A.** The IC50 was 180 pM.

**Q.** Which IC50 does the source give for `CCNC(=O)Nc1cc(C)c(C(=O)N2CCC(C)(N3CCC(N(Cc4ccccc4)c4ccc(CC(=O)N5CCOCC5)cc4)CC3)CC2)c(C)c1` here?
**A.** Its IC50 is 190 pM.

**Q.** Which IC50 does the source give for `Cc1cc(O)cc(C)c1C(=O)N1CCC(C)(N2CCC(N(Cc3ccccc3)c3ccc(C(C)(C)C(=O)N4CCOCC4)cc3)CC2)CC1` here?
**A.** The IC50 was < 100 pM.

**Q.** `Cc1cc(NS(C)(=O)=O)cc(C)c1C(=O)N1CCC(C)(N2CCC(N(Cc3ccccc3)c3ccc(C(C)(C)C(=O)N4CCOCC4)cc3)CC2)CC1` was tested. Which IC50 did it give?
**A.** The IC50 was 160 pM.

**Q.** Which IC50 does the source give for `Cc1cc(N)cc(C)c1C(=O)N1CCC(C)(N2CCC(N(Cc3ccccc3)c3ccc(C(C)(C)C(=O)N4CCOCC4)cc3)CC2)CC1` here?
**A.** Its IC50 is 130 pM.

**Q.** How did the IC50 turn out when `Cc1ncnc(C)c1C(=O)N1CCC(C)(N2CCC(N(Cc3ccccc3)c3ccc(CC#N)cc3)CC2)CC1` was run?
**A.** The IC50 was 140 pM.

**Q.** For `Cc1ncnc(C)c1C(=O)N1CCC(C)(N2CCC(N(Cc3ccccc3)c3ccc(CNC(=O)[C@H](O)c4ccccc4)cc3)CC2)CC1`, which IC50 is on record?
**A.** Its IC50 is 190 pM.

**Q.** Which IC50 does the source give for `CCN(CC)C(=O)[C@@H](O)c1ccc(N(Cc2ccccc2)C2CCN(C3(C)CCN(C(=O)c4c(C)ncnc4C)CC3)CC2)cc1` here?
**A.** The IC50 was 160 pM.

**Q.** With `Cc1ncnc(C)c1C(=O)N1CCC(C)(N2CCC(N(Cc3ccccc3)c3ccc(S(=O)(=O)CCO)cc3)CC2)CC1` as the molecule, how does the IC50 read?
**A.** Its IC50 is 170 pM.

**Q.** `Cc1ncnc(C)c1C(=O)N1CCC(C)(N2CCC(N(Cc3ccccc3)c3ccn(C)c(=O)c3)CC2)CC1` was tested. Which IC50 did it give?
**A.** The IC50 was 150 pM.

— patent publication US7652142B2, “Bipiperidinyl derivatives useful as inhibitors of chemokine receptors” (priority 2003, dated 2010)
